In PubChem BioAssay (NCI):
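Method: 48-hour compound exposure of cells in 96-well plates, five concentrations, linear interpolation of endpoints. The concentration for full growth arrest is given as TGI.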

How the values were obtained:
Assay in all cases: NCI anticancer screen, dose series, 48 h
SNB-75 CNS = test system: SNB-75 CNS
SK-MEL-28 melanoma = test system: SK-MEL-28 melanoma
TK-10 renal = test system: TK-10 renal
OVCAR-4 ovarian = test system: OVCAR-4 ovarian
NCI-H226 lung = test system: NCI-H226 lung
A549 NSCLC = test system: A549 NSCLC
CAKI-1 renal = test system: CAKI-1 renal
LOX IMVI melanoma = test system: LOX IMVI melanoma
ACHN renal = test system: ACHN renal
DU-145 prostate = test system: DU-145 prostate
SK-OV-3 ovarian = test system: SK-OV-3 ovarian
KM12 colon = test system: KM12 colon
SN12C renal = test system: SN12C renal
MCF7 breast = test system: MCF7 breast
MDA-MB-231 breast = test system: MDA-MB-231 breast
PC-3 prostate = test system: PC-3 prostate
HCT-116 colon = test system: HCT-116 colon
SK-MEL-5 melanoma = test system: SK-MEL-5 melanoma
SR leukemia = test system: SR leukemia
A498 renal = test system: A498 renal

Structure (SMILES)	TGI (SNB-75 CNS) [µM]	TGI (SK-MEL-28 melanoma) [µM]	TGI (TK-10 renal) [µM]	TGI (OVCAR-4 ovarian) [µM]	TGI (NCI-H226 lung) [µM]	TGI (A549 NSCLC) [µM]	TGI (CAKI-1 renal) [µM]	TGI (LOX IMVI melanoma) [µM]	TGI (ACHN renal) [µM]	TGI (DU-145 prostate) [µM]	TGI (SK-OV-3 ovarian) [µM]	TGI (KM12 colon) [µM]	TGI (SN12C renal) [µM]	TGI (MCF7 breast) [µM]	TGI (MDA-MB-231 breast) [µM]	TGI (PC-3 prostate) [µM]	TGI (HCT-116 colon) [µM]	TGI (SK-MEL-5 melanoma) [µM]	TGI (SR leukemia) [µM]	TGI (A498 renal) [µM]
COc1cc(C(O)(CC#N)c2cc3c(cc2Br)OCO3)cc(OC)c1OC (centres undefined)	> 100	> 100	> 100	> 100	83.3	> 100	75.8	> 100	> 100	> 100	> 100	98.7	> 100	> 100	54.5	> 100	> 100	–	–	–
CCCC(=O)Nc1cc(/C=C/C(=O)N2CC(CCl)c3c2cc(O)c2[nH]cc(C)c32)n(C)c1 (centres undefined)	< 2.5e-05	> 0.25	< 2.5e-05	0.038	4e-05	–	< 2.5e-05	0.0163	< 2.5e-05	0.000817	0.00563	> 0.25	0.000528	–	0.0344	–	–	< 2.5e-05	> 0.14	–
Cc1ccc(S(=O)(=O)N2CCCSCC2)cc1	> 100	> 100	> 100	> 100	> 100	> 100	–	> 100	> 100	> 100	> 100	> 100	> 100	> 100	> 100	> 100	> 100	> 100	> 100	> 100
CC(=O)C1CC[C@@H]2[C@H](CC[C@]3(C)[C@@H](O)CC[C@@H]23)[C@H]1C(=O)O (some centres undefined)	–	> 100	> 100	> 100	–	> 100	> 100	–	–	–	> 100	> 100	–	> 100	> 100	> 100	–	> 100	> 100	> 100
O=C1c2ccccc2C(=O)N1CC(O)COc1cccc2ccccc12 (centres undefined)	–	> 100	> 100	–	–	> 100	> 100	> 100	> 100	> 100	> 100	–	–	> 100	> 100	> 100	> 100	> 100	> 100	> 100
